Structures can show the parent of a compound that is named as a salt.
What follows are compounds tested against ATM (Homo sapiens (Human), UniProt Q13315) (assay: ATM in Cell Western Assay (pKAP1 in etoposide-treated MCF-7 cells)). Settings: MCF-7 cells, etoposide 100 μM, 1 hr, pKAP1 readout.
Type: cell-based
Description: Assay of Compounds ATM and DNA-PK Inhibition
ATM in Cell Western Assay:
Next day, add corresponding concentration of compounds using pin tool (Echo 550), the final top concentration is 1 μM, 3-fold series dilution, total 10 doses. Then add etoposide (Sigma, #E1383) to a final concentration of 100 μM. Incubate at 37° C. for 1 hr. Fix cells by adding 25 μL of fixing solution (8% paraformaldehyde) for 20 minutes at ambient temperature. Permeabilize cells for 5 washes with 1×PBS (phosphate buffered saline) containing 0.1% Triton X-100; each wash is for 5 minutes. […] The next day, wash the plate 5 times with 1×PBST (1×PBS containing 0.1% Tween-20). […] Wash the cells for 5 times with 1×PBST (1×PBS containing 0.1% Tween-20) at ambient temperature, using gentle shaking in the dark. After the last wash
remove wash solution, turn plate upside down onto a thin paper towel and centrifuge at 1000 rpm for 1 min to absorb all wash buffer. Clean the bottom of plate with moist lint free paper. Scan plate immediately using ODYSSEY CLx (LI-COR) for the best results.

ATM, sequence (Q13315 whole entry): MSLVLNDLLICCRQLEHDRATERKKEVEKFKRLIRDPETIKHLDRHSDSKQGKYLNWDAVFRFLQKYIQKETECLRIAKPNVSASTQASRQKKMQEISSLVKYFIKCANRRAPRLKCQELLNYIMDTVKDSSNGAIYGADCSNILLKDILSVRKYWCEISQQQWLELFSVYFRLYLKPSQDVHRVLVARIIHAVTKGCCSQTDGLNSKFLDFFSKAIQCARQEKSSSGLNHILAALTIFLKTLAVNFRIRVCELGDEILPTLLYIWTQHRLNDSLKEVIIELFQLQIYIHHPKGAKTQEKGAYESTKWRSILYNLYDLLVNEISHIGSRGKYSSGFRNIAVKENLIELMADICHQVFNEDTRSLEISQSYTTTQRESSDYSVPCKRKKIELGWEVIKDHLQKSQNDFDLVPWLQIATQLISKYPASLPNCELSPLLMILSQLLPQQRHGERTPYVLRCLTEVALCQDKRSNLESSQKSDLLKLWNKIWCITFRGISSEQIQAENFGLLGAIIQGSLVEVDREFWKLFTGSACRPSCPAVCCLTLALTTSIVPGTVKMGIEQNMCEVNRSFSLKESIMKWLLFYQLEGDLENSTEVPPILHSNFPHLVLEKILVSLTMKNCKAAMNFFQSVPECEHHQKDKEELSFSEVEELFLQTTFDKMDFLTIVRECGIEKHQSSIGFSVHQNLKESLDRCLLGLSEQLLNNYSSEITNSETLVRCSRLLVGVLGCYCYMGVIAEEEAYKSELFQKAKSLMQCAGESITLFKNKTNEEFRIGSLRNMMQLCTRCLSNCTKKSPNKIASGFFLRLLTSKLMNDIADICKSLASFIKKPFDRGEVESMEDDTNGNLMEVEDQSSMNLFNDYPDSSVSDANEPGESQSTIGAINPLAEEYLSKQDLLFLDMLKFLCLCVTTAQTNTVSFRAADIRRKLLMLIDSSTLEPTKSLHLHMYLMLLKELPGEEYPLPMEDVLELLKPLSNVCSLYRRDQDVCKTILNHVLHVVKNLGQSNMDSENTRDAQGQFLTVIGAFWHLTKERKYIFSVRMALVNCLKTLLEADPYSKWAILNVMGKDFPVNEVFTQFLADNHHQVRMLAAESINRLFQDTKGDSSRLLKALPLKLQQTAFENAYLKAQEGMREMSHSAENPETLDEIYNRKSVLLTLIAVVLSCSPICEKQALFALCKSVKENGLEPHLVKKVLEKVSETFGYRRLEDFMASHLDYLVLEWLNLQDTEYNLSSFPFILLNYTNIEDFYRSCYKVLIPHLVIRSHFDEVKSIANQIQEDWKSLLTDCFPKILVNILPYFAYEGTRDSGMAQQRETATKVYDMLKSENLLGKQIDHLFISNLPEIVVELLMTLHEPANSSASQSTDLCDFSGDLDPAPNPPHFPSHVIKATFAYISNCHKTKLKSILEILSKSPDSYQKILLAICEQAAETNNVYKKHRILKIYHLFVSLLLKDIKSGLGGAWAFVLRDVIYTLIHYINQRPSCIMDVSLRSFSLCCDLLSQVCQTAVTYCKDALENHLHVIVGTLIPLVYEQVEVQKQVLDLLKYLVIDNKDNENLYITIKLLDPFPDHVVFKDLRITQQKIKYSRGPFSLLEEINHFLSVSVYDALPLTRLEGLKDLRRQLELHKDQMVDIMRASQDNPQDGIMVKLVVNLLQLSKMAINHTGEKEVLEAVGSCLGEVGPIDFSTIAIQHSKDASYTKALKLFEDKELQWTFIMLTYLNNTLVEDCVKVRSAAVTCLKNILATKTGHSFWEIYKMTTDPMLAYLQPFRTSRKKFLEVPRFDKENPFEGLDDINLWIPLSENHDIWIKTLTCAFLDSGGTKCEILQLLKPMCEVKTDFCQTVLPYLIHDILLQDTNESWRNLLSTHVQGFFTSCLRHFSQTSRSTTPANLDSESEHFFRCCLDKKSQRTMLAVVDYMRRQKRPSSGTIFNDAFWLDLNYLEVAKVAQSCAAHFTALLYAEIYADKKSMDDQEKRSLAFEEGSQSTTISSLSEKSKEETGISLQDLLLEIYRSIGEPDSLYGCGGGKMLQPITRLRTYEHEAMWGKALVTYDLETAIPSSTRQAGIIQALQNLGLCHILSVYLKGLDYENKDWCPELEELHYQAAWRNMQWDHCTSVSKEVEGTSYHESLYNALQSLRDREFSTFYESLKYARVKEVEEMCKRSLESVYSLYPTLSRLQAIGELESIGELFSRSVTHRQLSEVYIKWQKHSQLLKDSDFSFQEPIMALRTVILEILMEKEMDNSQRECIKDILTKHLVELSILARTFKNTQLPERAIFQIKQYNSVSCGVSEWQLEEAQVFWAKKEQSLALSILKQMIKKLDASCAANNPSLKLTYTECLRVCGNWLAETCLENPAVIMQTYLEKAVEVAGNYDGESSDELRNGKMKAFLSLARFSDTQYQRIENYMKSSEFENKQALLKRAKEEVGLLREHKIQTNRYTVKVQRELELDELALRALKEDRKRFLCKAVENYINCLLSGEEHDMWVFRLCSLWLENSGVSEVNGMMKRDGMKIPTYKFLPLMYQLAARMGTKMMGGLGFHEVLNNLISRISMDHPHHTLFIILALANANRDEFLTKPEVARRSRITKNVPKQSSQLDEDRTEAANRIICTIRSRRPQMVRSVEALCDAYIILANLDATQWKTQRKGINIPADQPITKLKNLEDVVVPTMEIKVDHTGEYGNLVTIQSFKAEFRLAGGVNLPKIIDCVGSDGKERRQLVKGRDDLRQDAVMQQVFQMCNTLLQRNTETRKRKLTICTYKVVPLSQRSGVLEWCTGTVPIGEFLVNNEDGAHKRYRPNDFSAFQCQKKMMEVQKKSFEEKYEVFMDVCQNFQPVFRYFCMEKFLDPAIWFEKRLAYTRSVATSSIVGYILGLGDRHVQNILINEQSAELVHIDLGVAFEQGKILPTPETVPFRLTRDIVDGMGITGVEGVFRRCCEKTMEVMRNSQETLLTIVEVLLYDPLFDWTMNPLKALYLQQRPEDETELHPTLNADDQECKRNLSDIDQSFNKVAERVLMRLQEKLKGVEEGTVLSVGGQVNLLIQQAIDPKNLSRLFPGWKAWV

Compound | IC50
CN(C)CCCNc1ccc(-c2ccc3ncc4c(c3c2)C2(CC2)C(=O)N4C)cn1 [Example 94, 8′-(6-((3-(Dimethylamino)propyl)amino)pyridin-3-yl)-3′-methylspiro [cyclopropane-1,1′-pyrrolo[2,3-c]quinolin]-2′(3′-H)-one] | 1 to 100 nM
CC(Oc1cc(-c2ccc3ncc4c(c3c2)C2(CC2)C(=O)N4C)cnc1OCCCN(C)C)c1ccccc1 (stereo not shown) [Example 95, 8′-(6-(3-(Dimethylamino)propoxy)-5-(1-phenylethoxy)pyridin-3-yl)-3′-methylspiro[cyclopropane-1,1′-pyrrolo[2,3-c]quinolin]-2′(3′-H)-one] | > 100 nM
Cc1oncc1S(=O)(=O)Nc1cc(-c2ccc3ncc4c(c3c2)C2(CC2)C(=O)N4C)cnc1OCCCN(C)C [Example 99, N-(2-(3-(Dimethylamino)propoxy)-5-(3′-methyl-2′-oxo-2′,3′-dihydrospiro [cyclopropane-1,1′-pyrrolo[2,3-c]quinolin]-8′-yl)pyridin-3-yl)-5-methylisoxazole-4-sulfonamide] | > 100 nM
CC(=O)Nc1ccc(S(=O)(=O)Nc2cc(-c3ccc4ncc5c(c4c3)C3(CC3)C(=O)N5C)cnc2OCCCN(C)C)cc1 [Example 101, N-(4-(N-(2-(3-(Dimethylamino)propoxy)-5-(3′-methyl-2′-oxo-2′,3′-dihydrospiro [cyclopropane-1,1′-pyrrolo[2,3-c]quinolin]-8′-yl)pyridin-3-yl)sulfamoyl)phenyl) acetamide] | 1 to 100 nM
CN(C)CCCOc1ncc(-c2ccc3ncc4c(c3c2)C2(CC2)C(=O)N4C)cc1NS(=O)(=O)c1ccc(Cl)nc1 [Example 105, 6-Chloro-N-(2-(3-(dimethylamino)propoxy)-5-(3′-methyl-2′-oxo-2′,3′-dihydrospiro[cyclopropane-1,1′-pyrrolo[2,3-c]quinolin]-8′-yl)pyridin-3-yl)pyridine-3-sulfonamide] | 1 to 100 nM
CN1CC(COc2ncc(-c3ccc4ncc5c(c4c3)C3(CC3)C(=O)N5C)cc2NS(=O)(=O)c2ccccc2)C1 [Example 110, N-(5-(3′-Methyl-2′-oxo-2′,3′-dihydrospiro[cyclopropane-1,1′-pyrrolo[2,3-c]quinolin]-8′-yl)-2-((1-methylazetidin-3-yl)methoxy)pyridin-3-yl)benzenesulfonamide] | > 100 nM
CN1C(=O)C2(CCC2)c2c1cnc1ccc(-c3cnc(N4CCS(=O)(=O)CC4)c(NS(=O)(=O)c4ccccc4)c3)cc21 [Example 135, N-(2-(1,1-Dioxidothiomorpholino)-5-(3′-methyl-2′-oxo-2′,3′-dihydrospiro[cyclobulane-1,1′-pyrrolo[2,3-c]quinolin]-8′-yl)pyridin-3-yl)benzenesulfonamide hydrochloride] | > 100 nM
CN(C)CCCOc1ncc(-c2ccc3ncc4c(c3c2)C2(CCC2)C(=O)N4C)cc1NS(=O)(=O)N1CCCc2ccccc21 [Example 139] | 1 to 100 nM

Second part, the compound after the results:

IC50 | Compound
1 to 100 nM | CN(C)CCCOc1ncc(-c2ccc3ncc4c(c3c2)C2(CC2)C(=O)N4C)cc1NS(=O)(=O)c1cccnc1 [Example 85]
> 100 nM | CN(C)CCCOc1ncc(-c2ccc3ncc4c(c3c2)N(C)C2(CC2)C(=O)N4)cc1NS(=O)(=O)c1ccccc1 [Example 87, N-(2-(3-(Dimethylamino)propoxy)-5-(1′-methyl-3′-oxo-3′-,4′-dihydro-1′H-spiro[cyclopropane-1,2′-pyrazino[2,3-c]quinolin]-9′-yl)pyridin-3-yl) benzenesulfonamide]
< 0.5 nM | CN(C)CCCOc1ncc(-c2ccc3ncc4c(c3c2)C2(CC2)C(=O)N4C)cc1NS(=O)(=O)c1ccc(C(F)(F)F)cc1 [Example 108]
0.5 to 1 nM | CN(C)CCCOc1ncc(-c2ccc3ncc4c(c3c2)C2(CC2)C(=O)N4C)cc1NS(=O)(=O)c1cccs1 [Example 120]
1 to 100 nM | CN(C)CC1CN(c2ncc(-c3ccc4ncc5c(c4c3)C3(CC3)C(=O)N5C)cc2NS(=O)(=O)C2CC2)C1 [Example 122, N-(2-(3-((Dimethylamino)methyl)azetidin-1-yl)-5-(3′-methyl-2′-oxo-2′,3′-dihydrospiro[cyclopropane-1,1′-pyrrolo[2,3-c]quinolin]-8′-yl)pyridin-3-yl)cyclopropanesulfonamide]

Source: patent US12187742B2 (XRAD Therapeutics, Inc., priority 2018, dated 2025)
